Data reported in PubChem BioAssay AID248 (DTP/NCI, 2004).
Values joined by “and” are separate entries in the source; they are usually repeats but may differ in a detail not shown here. Equal entries are not always repeated. Toxic doses and inconclusive results are not listed. No stated cut-off is given here; in the data, active means T/C of 150% or more; inactive means T/C below 125%.

Tested on: L1210 leukemia ip in BDF1 mice, survival T/C
Experiment: NCI In Vivo Anticancer Drug Screen. Data for tumor model L1210 Leukemia (intraperitoneal) in B6D2F1 (BDF1) mice
Details: endpoint: mean survival time, higher = longer survival
How it was run: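 Read-out is survival time, reported as the treated-group measurement over the vehicle-control measurement.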

[1] = dose: 100.0 mg/kg/injection, schedule: Q01DX001 (ip), vehicle: saline with Tween-80
[2] = dose: 200.0 mg/kg/injection, schedule: Q01DX001 (ip), vehicle: saline with Tween-80
[3] = dose: 400.0 mg/kg/injection, schedule: Q01DX001 (ip), vehicle: saline with Tween-80
[4] = dose: 50.0 mg/kg/injection, schedule: Q01DX009 (ip), vehicle: saline with Tween-80
[5] = dose: 100.0 mg/kg/injection, schedule: Q01DX009 (ip), vehicle: saline with Tween-80
[6] = dose: 100.0 mg/kg/injection, schedule: Q01DX001 (ip), vehicle: saline
[7] = dose: 200.0 mg/kg/injection, schedule: Q01DX001 (ip), vehicle: saline
[8] = dose: 400.0 mg/kg/injection, schedule: Q01DX001 (ip), vehicle: saline
[9] = dose: 25.0 mg/kg/injection, schedule: Q04DX003 (ip), vehicle: saline
[10] = dose: 50.0 mg/kg/injection, schedule: Q01DX009 (ip), vehicle: saline
[11] = dose: 100.0 mg/kg/injection, schedule: Q01DX001 (ip), vehicle: Klucel (hydroxypropylcellulose) (HPC)
[12] = dose: 200.0 mg/kg/injection, schedule: Q01DX001 (ip), vehicle: Klucel (hydroxypropylcellulose) (HPC)
[13] = dose: 100.0 mg/kg/injection, schedule: Q01DX009 (ip), vehicle: Klucel (hydroxypropylcellulose) (HPC)
[14] = dose: 100.0 mg/kg/injection, schedule: Q04DX003 (ip), vehicle: Klucel (hydroxypropylcellulose) (HPC)
[15] = dose: 200.0 mg/kg/injection, schedule: Q01DX009 (ip), vehicle: Klucel (hydroxypropylcellulose) (HPC)
[16] = dose: 200.0 mg/kg/injection, schedule: Q04DX003 (ip), vehicle: Klucel (hydroxypropylcellulose) (HPC)
[17] = dose: 400.0 mg/kg/injection, schedule: Q01DX009 (ip), vehicle: Klucel (hydroxypropylcellulose) (HPC)
[18] = dose: 400.0 mg/kg/injection, schedule: Q04DX003 (ip), vehicle: Klucel (hydroxypropylcellulose) (HPC)

Measured: T/C

O=C(Nc1ccc2c3c(cccc13)CC2)c1cccc([N+](=O)[O-])c1
inactive: [1] 102 % of control | [2] 94 % of control | [3] 96 % of control

CC1(C)Oc2c(ccc(O)c2CN2CCOCC2)C2=C1CCCC2
inactive: dose: 100.0 mg/kg/injection, schedule: Q01DX001 (ip), vehicle: carboxymethylcellulose (CMC) 93 % of control | dose: 200.0 mg/kg/injection, schedule: Q01DX001 (ip), vehicle: carboxymethylcellulose (CMC) 96 % of control | dose: 400.0 mg/kg/injection, schedule: Q01DX001 (ip), vehicle: carboxymethylcellulose (CMC) 91 % of control

CCNC(=O)NC(=O)C(C)(C)Oc1ccc(Cl)cc1
inactive: [4] 103 % of control | [5] 92 % of control | dose: 200.0 mg/kg/injection, schedule: Q01DX009 (ip), vehicle: saline with Tween-80 96 % of control

NCC(=O)N/C(=C/c1ccccc1)C(=O)NCC(=O)O
inactive: dose: 100.0 mg/kg/injection, schedule: Q04DX002 (ip), vehicle: saline with Tween-80 97 % of control | dose: 200.0 mg/kg/injection, schedule: Q04DX002 (ip), vehicle: saline with Tween-80 97 % of control | dose: 400.0 mg/kg/injection, schedule: Q04DX002 (ip), vehicle: saline with Tween-80 97 % of control

O=P(O)(Oc1ccccc1)c1ccccc1
inactive: [6] 107 % of control | [7] 105 % of control | [8] 100 % of control

CN(C)CCCC1c2ccccc2Oc2ccc(C(F)(F)F)cc21 (stereo not given)
inactive: dose: 0.78 mg/kg/injection, schedule: Q04DX003 (ip), vehicle: saline 103 % of control | dose: 1.56 mg/kg/injection, schedule: Q04DX003 (ip), vehicle: saline 102 % of control | dose: 3.12 mg/kg/injection, schedule: Q04DX003 (ip), vehicle: saline 105 % of control | dose: 6.25 mg/kg/injection, schedule: Q04DX003 (ip), vehicle: saline 105 % of control | dose: 12.5 mg/kg/injection, schedule: Q04DX003 (ip), vehicle: saline 102 % of control | [9] 117 % of control | [10] 100 % of control

OCCCOc1ccccc1
inactive: [1] 103 % of control | [2] 97 % of control | [3] 100 % of control

CCCCCCCC(=O)NOS(=O)(=O)O
inactive: dose: 25.0 mg/kg/injection, schedule: Q01DX001 (ip), vehicle: saline 101 % of control | dose: 25.0 mg/kg/injection, schedule: Q01DX009 (ip), vehicle: saline 91 % of control | [9] 100 % of control | dose: 50.0 mg/kg/injection, schedule: Q01DX001 (ip), vehicle: saline 97 % of control | [10] 88 % of control | dose: 50.0 mg/kg/injection, schedule: Q04DX003 (ip), vehicle: saline 95 % of control | dose: 100.0 mg/kg/injection, schedule: Q04DX003 (ip), vehicle: saline 95 % of control

CC(=O)NC(CO)C(O)C(O)C(O)CO (stereo not given)
inactive: dose: 100.0 mg/kg/injection, schedule: Q04DX002 (ip), vehicle: saline 101 % of control and 89 % of control | dose: 200.0 mg/kg/injection, schedule: Q04DX002 (ip), vehicle: saline 93 % of control and 104 % of control | dose: 400.0 mg/kg/injection, schedule: Q04DX002 (ip), vehicle: saline 93 % of control | dose: 800.0 mg/kg/injection, schedule: Q04DX002 (ip), vehicle: saline 93 % of control

CCCCCCOP(=O)(N1CC1C)N1CC1C (stereo not given)
inactive: dose: 12.0 mg/kg/injection, schedule: Q01DX Z (ip), vehicle: saline 102 % of control | dose: 25.0 mg/kg/injection, schedule: Q01DX Z (ip), vehicle: saline 103 % of control | dose: 50.0 mg/kg/injection, schedule: Q01DX Z (ip), vehicle: saline 102 % of control and 111 % of control | dose: 100.0 mg/kg/injection, schedule: Q01DX Z (ip), vehicle: saline 109 % of control | dose: 200.0 mg/kg/injection, schedule: Q01DX Z (ip), vehicle: saline 107 % of control | dose: 400.0 mg/kg/injection, schedule: Q01DX Z (ip), vehicle: saline 106 % of control

O=S(=O)(N/N=C/c1cc(Cl)ccc1O)c1cc(Cl)c(Cl)cc1Cl
inactive: dose: 5.0 mg/kg/injection, schedule: Q01DX Z (ip), vehicle: other 107 % of control | dose: 10.0 mg/kg/injection, schedule: Q01DX Z (ip), vehicle: other 110 % of control | dose: 20.0 mg/kg/injection, schedule: Q01DX Z (ip), vehicle: other 105 % of control

CCCCCCC(C)OC(=O)CCSCCC(=O)OC(C)CCCCCC (stereo not given)
inactive: [6] 98 % of control | [7] 94 % of control | [8] 86 % of control

Cc1ccccc1N=Nc1c(O)n(-c2ccccc2Cl)c(=S)n(-c2ccccc2)c1=O
inactive: dose: 50.0 mg/kg/injection, schedule: Q01DX001 (ip), vehicle: Klucel (hydroxypropylcellulose) (HPC) 98 % of control | [11] 100 % of control | [12] 96 % of control

CNc1cnc(Cl)nc1Cl
inactive: dose: 50.0 mg/kg/injection, schedule: Q01DX001 (ip), vehicle: acetone 98 % of control | dose: 100.0 mg/kg/injection, schedule: Q01DX001 (ip), vehicle: acetone 93 % of control | dose: 200.0 mg/kg/injection, schedule: Q01DX001 (ip), vehicle: acetone 97 % of control

O=c1cc(Nc2cccc(Cl)c2)[nH]c(=O)[nH]1
inactive: dose: 35.0 mg/kg/injection, schedule: Q01DX001 (ip), vehicle: Klucel (hydroxypropylcellulose) (HPC) 92 % of control | dose: 70.0 mg/kg/injection, schedule: Q01DX001 (ip), vehicle: Klucel (hydroxypropylcellulose) (HPC) 92 % of control | dose: 140.0 mg/kg/injection, schedule: Q01DX001 (ip), vehicle: Klucel (hydroxypropylcellulose) (HPC) 98 % of control

CCOC(=O)C(C)[P+](c1ccccc1)(c1ccccc1)c1ccccc1 (stereo not given)
inactive: dose: 1.5 mg/kg/injection, schedule: Q01DX009 (ip), vehicle: saline 108 % of control | dose: 1.5 mg/kg/injection, schedule: Q04DX003 (ip), vehicle: saline 98 % of control | dose: 3.0 mg/kg/injection, schedule: Q01DX009 (ip), vehicle: saline 106 % of control | dose: 3.0 mg/kg/injection, schedule: Q04DX003 (ip), vehicle: saline 108 % of control | dose: 6.0 mg/kg/injection, schedule: Q04DX003 (ip), vehicle: saline 123 % of control

CC1CCC(=C(c2ccccc2)c2ccccc2)C(C)N1C (stereo not given)
inactive: dose: 25.0 mg/kg/injection, schedule: Q01DX009 (ip), vehicle: saline with Tween-80 98 % of control | dose: 25.0 mg/kg/injection, schedule: Q04DX003 (ip), vehicle: saline with Tween-80 107 % of control | [4] 98 % of control | dose: 50.0 mg/kg/injection, schedule: Q04DX003 (ip), vehicle: saline with Tween-80 96 % of control | [5] 90 % of control | dose: 100.0 mg/kg/injection, schedule: Q04DX003 (ip), vehicle: saline with Tween-80 98 % of control and 101 % of control

CC(=O)OC(C)(C)/N=N/C(C)(C)OC(C)=O
inactive: [11] 94 % of control | [13] 101 % of control | [14] 108 % of control | [12] 108 % of control | [15] 101 % of control | [16] 101 % of control | dose: 400.0 mg/kg/injection, schedule: Q01DX001 (ip), vehicle: Klucel (hydroxypropylcellulose) (HPC) 103 % of control | [17] 101 % of control | [18] 103 % of control

CCOC(=O)C1(C(=O)OCC)NC(=O)CC1c1ccccc1 (stereo not given)
inactive: [13] 94 % of control | [14] 92 % of control | [15] 101 % of control | [16] 100 % of control | [17] 92 % of control | [18] 105 % of control

O=[N+]([O-])c1ccc(/C=N/O)s1
inactive: dose: 25.0 mg/kg/injection, schedule: Q04DX002 (ip), vehicle: saline with Tween-80 95 % of control | dose: 50.0 mg/kg/injection, schedule: Q04DX002 (ip), vehicle: saline with Tween-80 104 % of control
